In patent publication US5331094A, “Purified active somatostatin receptor” (American Cyanamid Company, priority 1992, dated 1994):
pKd: −log10 of the molar value. Bridge positions count the residues as written; N and C are the ends. Square brackets hold non-standard residues; d marks the D form. Peptide text beside a SMILES is read from it. * marks the point of attachment. Biotin = O=C1N[C@H]2[C@H](CS[C@H]2CCCCC(=O)*)N1; Tyr(3-I) = N[C@@H](Cc1ccc(O)c(I)c1)C(=O)O; Ahx = NCCCCCC(=O)O

Legend:
Immobilized Streptavidin = target: T1, Immobilized Streptavidin (Streptomyces avidinii, UniProt P22629); test: Binding of [125I]-labelled biotinyl-SRIFs (solubilized R:L complex) to immobilized streptavidin; conditions: for Initial CPM: 100 ul of initial 100,000 x g supernatant containing soluble R:L complex; for CPM (non-bound), 1 hour: 100 ul supernatant after 1 hour incubation with SA-agarose; for CPM (non-bound), 1 hour / CPM (non-bound), 3 hours: 4-10 C; for CPM (non-bound), 3 hours: 100 ul supernatant after 3 hours incubation with SA-agarose; for % Binding of Radioligand to SA-Agarose, 1 hour, % Bound: 1 hour incubation with SA-agarose; for % Binding of Radioligand to SA-Agarose, 3 hours, % Bound: 3 hours incubation with SA-agarose
T1 construct: purchased Pierce Chemical Co
Description: (§1) To compare the three biotinyl-SRIF analogs in terms of binding to streptavidin, the following experiment is done. [^125 I]Bio-SRIF analogs are bound to GH4 C1 membranes as described ("Methods: Receptor Binding Methods, 3"). All radioligands are at a concentration of […] cpm/ml. For each radioligand, a control for non-specific binding was done in the presence of 1 uM cold S14. CPM bound/mg membrane protein after the binding step are as follows: [^125 I]Bio-6C-S14=755,020 (total) and 43,361 (non-specific); [^125 I]Bio-12C=S14=633,134 (total) and 39,538 (nonspecific); [^125 I]Bio-S28=1,065,512 (total) and 35,049 (nonspecific). The membrane pellets are solubilized in solubilization buffer containing 0.15% deoxycholate:lysolecithin and 0.2 mM MgCl2 as described ("Methods: Membrane Solubilization"). […] One ml samples of solubilized membranes are incubated with 0.05 ml vols of streptavidin-agarose at 4°-10° C. on a tube rotator for the times shown. Non-specific binding samples are not done due to the low levels of non-specific binding. At the times shown, the […] beads are spun down and 100 ul samples of supernatant are counted. The cpm are compared to initial cpm in the sample and % binding to SA is calculated from this. Also, it should be noted that binding of cpm from the supernatant is considered to parallel the binding of R:L complex. Several observations confirm that this is a valid assumption.

SRIF receptor [1] = test: Binding of [125I]Bio-SRIF analogs to GH4 C1 membranes (CPM bound); design: species or system rat; conditions: for CPM bound/mg membrane protein (total): after the binding step; for CPM bound/mg membrane protein (non-specific): in the presence of 1 uM cold S14
Description: 3. Chemical cross-linking of radioligand with receptor is done after a binding step identical to the standard assay. However, the wash step is done with binding buffer minus BSA to reduce the possibility of non-specific cross-linking of radioligand with BSA. The cross-linking step is carried out as described below.
as §1

SRIF receptor [2] = test: Scatchard analysis of binding of [125I]-labelled SRIF analogs to GH4 C1 membranes; design: species or system rat; conditions: GH4 C1 membranes (FIG. 2), read-out: dissociation constant (KD)
Description: 1. Standard Binding Assays--Binding assays are done in a binding buffer containing 50 mM HEPES (pH 7.4), 0.5% BSA and 5 mM MgCl2. The standard assay for [^125 I]SRIF analog binding to GH4 C1 membranes, done in 96 well microtiter plates (Dynataech Immulon II Removawell plates), is carried out as follows: 1. Radioligand is diluted in binding buffer+ PMSF/Baci to the desired cpm per vol. of 50 μl and then 50 μl aliquots are added to the wells. For non-specific binding samples, 5 μl of 40 μM cold S14 is also added per well. 2. Binding is initiated by adding 150 μl per well of membrane diluted to the desired concentration (10-30 ug membrane protein/well) in binding buffer+ PMSF/Baci. Plates are then covered with Linbro mylar plate sealers (Flow Labs) and placed on a Dynatech Microshaker II and binding is allowed to proceed at room temperature for 1-2 hours. Binding is stopped by centrifuging the plate for 15 minutes at 2,000×g. The supernatants are dumped off and membrane pellets washed once by addition of 200 μl of ice cold binding buffer, brief shaking and recentrifugation. Finally the individual wells are placed in 12×75 mm tubes and counted in an LKB Gammamaster counter (78% efficiency). Specific binding by this method is identical to that measured when free ligand is removed by rapid (3-5 seconds) filtration and washing on polyethyleneimine-coated glass fiber filters.
Because Bio-C6-S14, Bio-C12-S14 and Bio-S28 all contain tyrosine residues, it is possible to prepare their [^125 I] labelled analogs and carry out Scatchard analyses of their binding affinities relative to [^125 I]Tyr11-S14 (FIG. 2). As shown in the figure, the [^125 I]-labelled peptides fall in the same order of potency as their non-labelled forms. The dissociation constants (KDs) and relative binding affinities are [^125 I]Tyr11-S14 (0.1 nM)>[^125 I]Bio-S28 (0.2 nM)>[^125I]Bio-6C-S14 (0.3 nM)>[^125 I]Bio-12C-S14 (0.4 nM).

SRIF receptor [3] = test: Lectin affinity binding (WGA-agarose) of solubilized receptor:[125I]Tyr11-S14 complex; design: species or system rat; conditions: for A/B, GFB/PEI filters: Recovery of soluble R:L complex
Description: 4. Larger scale binding assays to obtain membrane pellets for studies on solubilization of receptor: ligand complex and for receptor purification are also carried out. These are identical to the standard assays except that: (a) Binding is carried out in polypropylene tubes in volumes from 1-250 ml, (b) Concentration of membrane protein is always 0.5 mg/ml, (c) For receptor purification, BSA concentration in the binding buffer is reduced to 0.25% and the wash step is done with binding buffer without BSA. This is to reduce BSA contamination of the purified receptor.
H. Assay of Solubilized Receptors--After binding of [^125 I]SRIF analogs and solubilization of the membranes with detergent, the intact R:L complex could be assayed by four different methods (all carried out on ice or in a cold room at 4°-10° C.): (1) Column chromatography (Knuhtsen et al., Biochem. J. 254:641-647, 1988). Sephadex G-50 columns (8×250 mm) are equilibrated with solubilization buffer containing detergent at the concentration used to solubilize membranes and 1 mg/ml bovine serum albumin. 0.2-0.5 ml samples of solubilized membranes are applied to the columns and eluted at a flow rate of about 0.7 ml/minute. 0.18 ml samples are collected. Radioactivity is determined in a gamma counter as described under "Receptor Binding Methods". Void volumes of the columns are determined by the elution volume of blue dextran. Radioactivity eluting in the void volume (>50,000 MW) was considered bound to protein. Radioactivity eluting later, at the same volume as free [^125 I]SRIF, is considered non-bound. (2) Polyethyleneglycol precipitation (Cuatrecasas, PNAS USA 69:318-322, 1972) For a 100 ul sample of solubilized membranes in a 12×75 mm polypropylene tube, 0.5 ml of 1% (w/v) bovine gamma globulin (Sigma) in 0.1M sodium phosphate buffer is added, followed by 0.5 ml of 25% (w/v) polyethyleneglycol (Sigma) and mixing. The mixture is held on ice for 15 minutes. Then 3 ml of 0.1M sodium phosphate (pH 7.4) is added per sample and the samples are rapidly (1-3 seconds) filtered over Whatman GF/B glass fiber filters and washed with 4 ml of the phosphate buffer. PEG precipitated SRIF receptor:[^125 I]SRIF complex is determined by gamma counting of the filters. (3) GFB/PEI filter binding (Bruns et al., Analytical Biochem. 132:74-81, 1983). Whatman GF/B glass fiber filters are soaked in 0.3% polyethyleneimine (PEI, Sigma) for 3 hours. 25-100 ul samples of solubilized membranes are replaced in 12×75 mm polypropylene tubes. Then 4 ml of solubilization buffer (without detergent) is added per sample and the samples are immediately filtered through the GFB/PEI filters (1-3 seconds) and washed with 4 ml of solubilization buffer. CPM of SRIF receptor:[^125 I]SRIF complex adsorbed to filters are determined by gamma counting. (4) Charcoal/Dextran (Paul and Said, Peptides 7[Suppl. 1]:147-149, 1986). 0.5 gm of Dextran T70 (Pharmacia) is dissolved in 1 liter of water and then 5 gm of activated charcoal (Norit A, alkaline; Fisher Scientific) is added. The suspension is stirred for 10 minutes at room temperature and then stored at 4° C. until use. To measure R:L complex, 4 parts by volume of charcoal/dextran suspension are added to 1 part by volume of solubilized membrane. The samples are mixed and held on ice for 2 minutes and then centrifuged for 2 minutes at 11,000×g in a Beckman microfuge. Free radioligand is adsorbed charcoal/dextran and is discarded with the pellet. SRIF receptor:[^125 I]SRIF complex remain in the supernatant and is determined by gamma counting.
A. Solubilized Receptor: [^125 I]Tyr11-S14 Complex-Binding of [^125 I][…] to GH4 C1 membranes is carried out as in "Receptor Binding Methods. 4". Binding incubations contain 0.5 mg/ml membrane protein and 6×10^6 cpm/ml of [^125 I]Tyr11-S14. Solubilization of membranes in 0.15% deoxycholate:lysolecithin is also as previous described. […]

[4] = Sample: 100,000 x g supernatant
[5] = Sample: Eluted from WGA-agarose
[6] = Sample: Non-bound to WGA-agarose

T1 sequence (P22629 25-183): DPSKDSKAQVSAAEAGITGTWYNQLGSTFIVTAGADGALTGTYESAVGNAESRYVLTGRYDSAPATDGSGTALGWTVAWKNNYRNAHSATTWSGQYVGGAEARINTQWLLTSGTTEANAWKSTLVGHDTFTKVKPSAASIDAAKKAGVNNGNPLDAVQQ

C[C@H](NC(=O)CCCCCNC(=O)CCCCCNC(=O)CCCC[C@@H]1SC[C@@H]2NC(=O)N[C@@H]21)C(=O)NCC(=O)N[C@H]1CSSC[C@@H](C(=O)O)NC(=O)[C@H](CO)NC(=O)[C@H]([C@@H](C)O)NC(=O)[C@H](Cc2ccc(O)c(I)c2)NC(=O)[C@H]([C@@H](C)O)NC(=O)[C@H](CCCCN)NC(=O)[C@H](Cc2c[nH]c3ccccc23)NC(=O)[C@H](Cc2ccccc2)NC(=O)[C@H](Cc2ccccc2)NC(=O)[C@H](CC(N)=O)NC(=O)[C@H](CCCCN)NC1=O [[^125 I]Bio-12C-S14] ({Biotin-Ahx-Ahx}-AGCKNFFWKT[Tyr(3-I)]TSC-OH; disulfide 3-14 (inferred); C-terminus assumed)
Initial CPM (Immobilized Streptavidin): 54,344 CPM | CPM (non-bound), 1 hour (Immobilized Streptavidin): 23,391 CPM | CPM (non-bound), 3 hours (Immobilized Streptavidin): 13,071 CPM | % Binding of Radioligand to SA-Agarose, 1 hour, % Bound (Immobilized Streptavidin): 57% | % Binding of Radioligand to SA-Agarose, 3 hours, % Bound (Immobilized Streptavidin): 76% | CPM bound/mg membrane protein (total) (SRIF receptor [1]): 633,134 CPM bound/mg membrane protein | CPM bound/mg membrane protein (non-specific) (SRIF receptor [1]): 39,538 CPM bound/mg membrane protein | pKd (SRIF receptor [2]): 9.40

C[C@H](NC(=O)CCCCCNC(=O)CCCC[C@@H]1SC[C@@H]2NC(=O)N[C@@H]21)C(=O)NCC(=O)N[C@H]1CSSC[C@@H](C(=O)O)NC(=O)[C@H](CO)NC(=O)[C@H]([C@@H](C)O)NC(=O)[C@H](Cc2ccc(O)c(I)c2)NC(=O)[C@H]([C@@H](C)O)NC(=O)[C@H](CCCCN)NC(=O)[C@H](Cc2c[nH]c3ccccc23)NC(=O)[C@H](Cc2ccccc2)NC(=O)[C@H](Cc2ccccc2)NC(=O)[C@H](CC(N)=O)NC(=O)[C@H](CCCCN)NC1=O [[^125 I]Bio-6C-S14] ({Biotin-Ahx}-AGCKNFFWKT[Tyr(3-I)]TSC-OH; disulfide 3-14)
Initial CPM (Immobilized Streptavidin): 63,490 CPM | CPM (non-bound), 1 hour (Immobilized Streptavidin): 28,381 CPM | CPM (non-bound), 3 hours (Immobilized Streptavidin): 16,228 CPM | % Binding of Radioligand to SA-Agarose, 1 hour, % Bound (Immobilized Streptavidin): 55% | % Binding of Radioligand to SA-Agarose, 3 hours, % Bound (Immobilized Streptavidin): 74% | CPM bound/mg membrane protein (total) (SRIF receptor [1]): 755,020 CPM bound/mg membrane protein | CPM bound/mg membrane protein (non-specific) (SRIF receptor [1]): 43,361 CPM bound/mg membrane protein | pKd (SRIF receptor [2]): 9.52

C[C@H](N)C(=O)NCC(=O)N[C@H]1CSSC[C@@H](C(=O)O)NC(=O)[C@H](CO)NC(=O)[C@H]([C@@H](C)O)NC(=O)[C@H](Cc2ccc(O)c(I)c2)NC(=O)[C@H]([C@@H](C)O)NC(=O)[C@H](CCCCN)NC(=O)[C@H](Cc2c[nH]c3ccccc23)NC(=O)[C@H](Cc2ccccc2)NC(=O)[C@H](Cc2ccccc2)NC(=O)[C@H](CC(N)=O)NC(=O)[C@H](CCCCN)NC1=O [[^125 I]Tyr11-S14] (H-AGCKNFFWKT[Tyr(3-I)]TSC-OH; disulfide 3-14 (inferred); N-terminus and C-terminus assumed)
A/B, GFB/PEI filters (SRIF receptor [3]; 100,000 x g supernatant): 11.3 | A/B, GFB/PEI filters (SRIF receptor [3]; Eluted from WGA-agarose): 33.7 | A/B, GFB/PEI filters (SRIF receptor [3]; Non-bound to WGA-agarose): 2.9 | A/B (total/non-specific) (SRIF receptor [3]; [4]): 8.2 | CPM of [125I]Tyr11-S14, A. Total (SRIF receptor [3]; [4]): 104,420 CPM | CPM of [125I]Tyr11-S14, B. Non-Specific (SRIF receptor [3]; [4]): 12,756 CPM | A/B (total/non-specific) (SRIF receptor [3]; Sample: Bound to WGA-agarose): 22.1 | CPM of [125I]Tyr11-S14, A. Total (SRIF receptor [3]; Sample: Bound to WGA-agarose): 69,889 CPM | CPM of [125I]Tyr11-S14, B. Non-Specific (SRIF receptor [3]; Sample: Bound to WGA-agarose): 3,157 CPM | A/B (total/non-specific) (SRIF receptor [3]; [5]): 23.0 | CPM of [125I]Tyr11-S14, A. Total (SRIF receptor [3]; [5]): 58,925 CPM | CPM of [125I]Tyr11-S14, B. Non-Specific (SRIF receptor [3]; [5]): 2,524 CPM | A/B (total/non-specific) (SRIF receptor [3]; Sample: Membranes): 5.3 | CPM of [125I]Tyr11-S14, A. Total (SRIF receptor [3]; Sample: Membranes): 151,848 CPM | CPM of [125I]Tyr11-S14, B. Non-Specific (SRIF receptor [3]; Sample: Membranes): 28,812 CPM | A/B (total/non-specific) (SRIF receptor [3]; [6]): 2.4 | CPM of [125I]Tyr11-S14, A. Total (SRIF receptor [3]; [6]): 23,112 CPM | CPM of [125I]Tyr11-S14, B. Non-Specific (SRIF receptor [3]; [6]): 9,624 CPM | pKd (SRIF receptor [2]): 10.00
